According to ChEMBL document CHEMBL1129006, “Orally active inhibitors of stromelysin-1 (MMP-3)” (Bioorg Med Chem Lett, 1996):

Tests used:
[1] = target: 72 kDa type IV collagenase (Homo sapiens, UniProt P08253); assay: Inhibition of matrix metalloprotease-2 (MMP-2)
[2] = target: T1, Interstitial collagenase (Homo sapiens, UniProt P03956); assay: Inhibition of matrix metalloprotease-1 (MMP-1)
T1 sequence (P03956 whole entry): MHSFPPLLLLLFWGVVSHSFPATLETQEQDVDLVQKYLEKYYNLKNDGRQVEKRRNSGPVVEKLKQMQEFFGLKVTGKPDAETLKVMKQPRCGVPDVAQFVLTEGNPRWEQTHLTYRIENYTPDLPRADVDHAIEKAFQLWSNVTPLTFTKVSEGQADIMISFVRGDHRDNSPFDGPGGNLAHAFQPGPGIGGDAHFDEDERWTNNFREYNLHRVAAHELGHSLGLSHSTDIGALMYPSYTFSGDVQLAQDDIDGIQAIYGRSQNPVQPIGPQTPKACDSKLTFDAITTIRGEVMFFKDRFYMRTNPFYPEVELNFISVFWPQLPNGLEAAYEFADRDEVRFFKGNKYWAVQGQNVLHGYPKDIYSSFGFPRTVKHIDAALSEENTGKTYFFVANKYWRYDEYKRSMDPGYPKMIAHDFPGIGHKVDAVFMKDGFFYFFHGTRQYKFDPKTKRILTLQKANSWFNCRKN

[3] = target: Stromelysin-1 (Homo sapiens, UniProt P08254)
Chain of Stromelysin-1 (P08254 whole entry): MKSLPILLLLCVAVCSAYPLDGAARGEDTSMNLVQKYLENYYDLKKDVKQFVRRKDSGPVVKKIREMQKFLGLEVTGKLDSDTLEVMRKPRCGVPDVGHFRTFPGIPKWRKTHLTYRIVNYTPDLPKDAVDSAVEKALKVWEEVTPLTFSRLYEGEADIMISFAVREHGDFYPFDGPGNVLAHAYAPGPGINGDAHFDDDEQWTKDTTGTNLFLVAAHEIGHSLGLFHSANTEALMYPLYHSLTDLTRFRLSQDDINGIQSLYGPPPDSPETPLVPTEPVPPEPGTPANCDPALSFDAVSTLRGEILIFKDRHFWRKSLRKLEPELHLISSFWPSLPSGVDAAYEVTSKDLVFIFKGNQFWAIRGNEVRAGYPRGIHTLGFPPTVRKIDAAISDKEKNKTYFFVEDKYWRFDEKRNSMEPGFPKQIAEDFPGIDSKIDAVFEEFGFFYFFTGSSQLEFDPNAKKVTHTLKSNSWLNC
Description: Inhibition of matrix metalloprotease-3 (MMP-3).

[4] = test system: Mus musculus; assay: Compound was tested for inhibition of MMP-3 -mediated degradation of radiolabeled transferrin in mouse pleural cavity(PLCAV) at a dose 100 mg/kg administered perorally.; format: functional; settings: route oral
[5] = test system: Mus musculus; assay: Compound was tested for inhibition of MMP-3 -mediated degradation of radiolabeled transferrin in mouse pleural cavity(PLCAV) at a dose 30 mg/kg administered intravenously.; format: functional; settings: route intravenous

Chain of 72 kDa type IV collagenase (P08253 whole entry): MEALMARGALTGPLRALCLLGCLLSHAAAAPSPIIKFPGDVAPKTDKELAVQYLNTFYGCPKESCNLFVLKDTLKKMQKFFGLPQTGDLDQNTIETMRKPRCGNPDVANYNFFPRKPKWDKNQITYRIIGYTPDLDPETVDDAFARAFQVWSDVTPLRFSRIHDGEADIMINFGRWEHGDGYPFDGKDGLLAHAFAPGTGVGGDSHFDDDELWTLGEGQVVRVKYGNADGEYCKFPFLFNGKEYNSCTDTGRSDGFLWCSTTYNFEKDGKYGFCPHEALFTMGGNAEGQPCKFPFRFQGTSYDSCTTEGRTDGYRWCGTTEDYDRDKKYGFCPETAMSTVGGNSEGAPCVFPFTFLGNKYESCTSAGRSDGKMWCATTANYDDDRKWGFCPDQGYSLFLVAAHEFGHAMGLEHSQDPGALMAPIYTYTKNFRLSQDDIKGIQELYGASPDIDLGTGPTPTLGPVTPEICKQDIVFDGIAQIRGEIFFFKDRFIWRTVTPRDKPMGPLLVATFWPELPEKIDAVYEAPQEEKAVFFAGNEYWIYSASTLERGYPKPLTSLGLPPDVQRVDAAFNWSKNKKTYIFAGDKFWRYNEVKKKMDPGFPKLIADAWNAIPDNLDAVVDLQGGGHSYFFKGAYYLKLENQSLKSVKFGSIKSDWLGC

SMILES	Ki [1] [nM]	Ki [2] [nM]	Ki [3] [nM]	ED50 [4] [mg/kg]	inhibition in vivo at 100 mg/kg [4] [%]	inhibition in vivo at 30 mg/kg [5] [%]
CC(C)C[C@H](NC(=O)[C@H](CCc1ccccc1)N[C@H](CCCCN1C(=O)c2ccccc2C1=O)C(=O)O)C(=O)Nc1ccccc1					1	91
CCCc1ccc(CC[C@H](N[C@H](CCCCN2C(=O)c3ccccc3C2=O)C(=O)O)C(=O)N[C@@H](CC(C)C)C(=O)Nc2ccccc2)cc1	2.6	> 10000	1.9			89
CC(C)C[C@H](NC(=O)[C@H](CCc1ccccc1)NCC(=O)O)C(=O)Nc1ccccc1	470	4620	3600			
CCCc1ccc(CC[C@H](N[C@H](C)C(=O)O)C(=O)N[C@@H](CC(C)C)C(=O)Nc2ccccc2)cc1				65		63
CC(C)C[C@H](NC(=O)[C@H](CCc1ccccc1)N[C@H](C)C(=O)O)C(=O)Nc1ccccc1 [L-696418]		770			55	50
CCCc1ccc(CC[C@H](N[C@H](CCCCN2Cc3ccccc3C2=O)C(=O)O)C(=O)N[C@@H](CC(C)C)C(=O)Nc2ccccc2)cc1	110	1600	9.5		4	81

More lines, main results first:

Ki [1] [nM]	Ki [2] [nM]	Ki [3] [nM]	SMILES	ED50 [4] [mg/kg]	inhibition in vivo at 100 mg/kg [4] [%]	inhibition in vivo at 30 mg/kg [5] [%]
310	> 10000	68	CCCc1ccc(CC[C@H](C[C@H](C)C(=O)O)C(=O)N[C@@H](CC(C)C)C(=O)Nc2ccccc2)cc1	32		
> 1000	> 10000	5800	CC(C)C[C@H](NC(=O)[C@@H](CCC(=O)O)CCc1ccccc1)C(=O)Nc1ccccc1			
220	> 10000	140	CCCc1ccc(CC[C@H](CCC(=O)O)C(=O)N[C@@H](CC(C)C)C(=O)Nc2ccccc2)cc1	47		
5.7	> 10000	0.36	CCCc1ccc(CC[C@H](C[C@H](CCCCN2Cc3ccccc3C2=O)C(=O)O)C(=O)N[C@@H](CC(C)C)C(=O)Nc2ccccc2)cc1		20	82
